The target in the experiment is T1, CCR9 (Homo sapiens, UniProt P51686).
T1 construct: chemokine expressing cells (such as THP-1 cells for CCR2 assay or MOLT-4 cells for CCR9 assay); host or cells: MOLT-4
T1 sequence (P51686 1-369): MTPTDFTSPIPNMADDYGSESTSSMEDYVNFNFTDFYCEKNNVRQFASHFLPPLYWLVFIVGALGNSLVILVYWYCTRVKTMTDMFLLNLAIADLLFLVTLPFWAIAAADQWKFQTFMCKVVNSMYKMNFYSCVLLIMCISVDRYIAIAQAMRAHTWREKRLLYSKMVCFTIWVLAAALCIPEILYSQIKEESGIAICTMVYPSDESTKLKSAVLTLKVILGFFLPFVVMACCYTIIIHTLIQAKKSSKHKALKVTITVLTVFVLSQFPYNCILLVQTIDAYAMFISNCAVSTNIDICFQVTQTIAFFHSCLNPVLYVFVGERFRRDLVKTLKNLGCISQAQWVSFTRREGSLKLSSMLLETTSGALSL
Description: CCR9 activity in one of the chemotaxis, binding or calcium mobilization assays. Type of experiment: cell-based. Particulars: assay not specified per compound. As to the method: Conventional migration assay was used to determine the efficacy of potential receptor antagonists in blocking migration mediated through chemokines (such as CCR2 or CCR9). This assay was routinely performed using the ChemoTX® microchamber system with a 5-μm pore-sized polycarbonate membrane. To begin such an assay, chemokine expressing cells (such as THP-1 cells for CCR2 assay or MOLT-4 cells for CCR9 assay) were harvested by centrifugation of cell suspension at 1000 RPM on a GS-6R Beckman centrifuge. The cell pellet was resuspended in chemotaxis buffer (HBSS with 0.1% BSA) at 10×10^6 cells/mL for CCR2 assay (5×10^6 cells/mL for CCR9 assay). Test compounds at desired concentrations were prepared from 10 mM stock solutions by serial dilutions in chemotaxis buffer. An equal volume of cells and compounds were mixed and incubated at room temperature for 15 minutes. Afterwards, 20 μL of the mixture was transferred onto the porous membrane of a migration microchamber, with 29 μL of chemokine ligand (0.1 nM chemokine MCP-1 protein for CCR2 assay or […] chemokine TECK protein for CCR9 assay) placed at the lower chamber. Following an incubation at 37° C. (90-minute for CCR2; 150-minute for CCR9), during which cells migrated against the chemokine gradient, the assay was terminated by removing the cell drops from atop the filter. To quantify cells migrated across the membrane, 5 μL of 7×CyQUANT® solution was added to each well in the lower chamber, and the fluorescence signal measured on a Spectrafluor Plus fluorescence plate reader (TECAN, Durham, N.C.). The degree of inhibition was determined by comparing migration signals between compound-treated and untreated cells. IC50 calculation was further performed by non-linear squares regression analysis using Graphpad Prism (Graphpad Software, San Diego, Calif.).
Calcium flux assay measures an increase in intracellular calcium following ligand-induced receptor activation. In the screen of chemokine antagonists, it was used as a secondary assay carried out on a FLIPR® machine (Molecular Devices, Mountain View, Calif.). To begin an assay, chemokine expressing cells (such as THP-1 cells for CCR2 assay or MOLT-4 cells for CCR9 assay) were harvested by centrifugation of cell suspension, and resuspended to 1.5×10^6 cells/mL in HBSS (with 1% fetal calf serum). Cells were then labeled with a calcium indicator dye Fluo-4 AM for 45 minutes at 37° C. with gentle shaking. Following incubation, cells were pelletted, washed once with HBSS and resuspended in the same buffer at a density of 1.6×10^6 cells/mL. One hundred microliters of labeled cells were mixed with 10 μL of test compound at the appropriate concentrations on an assay plate. Chemokine protein (MCP-1 at a final concentration of 0.1 nM for CCR2 assay or TECK at a final concentration of 25 nM for CCR9 assay) to activate the receptor. The degree of inhibition was determined by comparing calcium signals between compound-treated and untreated cells. IC50 calculations were further performed by non-linear squares regression analysis using Graphpad Prism (Graphpad Software, San Diego, Calif.). […]
In the tables below, structures and activity are provided for representative compounds described herein. Activity is provided as follows for either or both of the chemotaxis assay and/or calcium mobilization assays, described above.
For orientation: Calcium flux is commonly read through the fluorescence of an indicator in the cells.

As usually defined, the IC50 is the concentration that gives 50% inhibition.

Bounds are passed on as bounds.

With `CCc1nnc(-c2cc(Cl)c(F)cc2NS(=O)(=O)c2ccc(C(C)(C)C)cc2)n1C1CCOC1` (stereo not shown) [Compound 47], the IC50 was < 1000 nM.
Under `Cn1c(-c2cc(Cl)c(F)cc2NS(=O)(=O)c2ccc(C(C)(C)C)cc2)nnc1C1CCCNC1` (stereo not shown) [Compound 145] stands < 1000 nM; under `CC(C)(C)c1ccc(S(=O)(=O)Nc2ccc(Cl)cc2-c2nncn2-c2ccccc2)cc1` [Compound 2, 4-tert-butyl-N-(4-chloro-2-(4-phenyl-4H-1,2,4-triazol-3-yl)phenyl)benzenesulfonamide], < 1000 nM; under `CC(C)(C)c1ccc(S(=O)(=O)Nc2ccc(Cl)cc2-c2nncn2[C@@H]2CCNC2)cc1` [Compound 75], < 1000 nM.
For the compound `Cn1cnnc1-c1cc(Cl)ccc1NS(=O)(=O)c1ccc(C(C)(C)C)cc1` [Compound 30, 4-tert-butyl-N-(4-chloro-2-(4-methyl-4H-1,2,4-triazol-3-yl)phenyl)benzenesulfonamide], the IC50 was < 1000 nM.
`Cn1c(CN[C@H]2CCOC2)nnc1-c1cc(Cl)c(F)cc1NS(=O)(=O)c1ccc(C(C)(C)C)cc1` [Compound 148]: the IC50 was < 1000 nM.
Take `CC(C)(C)c1ccc(S(=O)(=O)Nc2cc(F)c(Cl)cc2-c2nncn2[C@H]2CCCNC2)cc1` [Compound 112]: the IC50 was < 1000 nM.
Regarding `CC(C)n1c(N)nnc1-c1cc(Cl)ccc1NS(=O)(=O)c1ccc(C(C)(C)C)cc1` [Compound 92, N-(2-(5-amino-4-isopropyl-4H-1,2,4-triazol-3-yl)-4-chlorophenyl)-4-tert-butylbenzenesulfonamide], the IC50 was < 1000 nM.
Regarding `CC(C)(C)c1ccc(S(=O)(=O)Nc2cc(F)c(Cl)cc2-c2nncn2C2CNC2)cc1` [Compound 85], the IC50 is < 1000 nM.
In the case of `Cc1nnc(-c2cc(Cl)ccc2NS(=O)(=O)c2ccc(OC(C)C)cc2)n1C(C)C` [Compound 15, N-(4-chloro-2-(4-isopropyl-5-methyl-4H-1,2,4-triazol-3-yl)phenyl)-4-isopropoxybenzenesulfonamide], the IC50 is < 1000 nM.
Consider `CNCc1nnc(-c2cc(Cl)ccc2NS(=O)(=O)c2ccc(C(C)(C)C)cc2)n1C` [Compound 132, 4-tert-butyl-N-(4-chloro-2-(4-methyl-5-((methylamino)methyl)-4H-1,2,4-triazol-3-yl)phenyl)benzenesulfonamide], for which the half-maximal inhibitory concentration (IC50) was < 1000 nM.
Under `CC(C)(C)c1ccc(S(=O)(=O)Nc2cc(F)c(Cl)cc2-c2nncn2[C@@H]2CCOC2)cc1` [Compound 53] stands < 1000 nM; under `CC(C)Oc1ccc(S(=O)(=O)Nc2ccc(Cl)cc2-c2nncn2C(C)C)cc1` [Compound 69, N-(4-chloro-2-(4-isopropyl-4H-1,2,4-triazol-3-yl)phenyl)-4-isopropoxybenzenesulfonamide], < 1000 nM; under `CCc1nnc(-c2cc(Cl)ccc2NS(=O)(=O)c2ccc(C(C)(C)C)cc2)n1C` [Compound 105, 4-tert-butyl-N-(4-chloro-2-(5-ethyl-4-methyl-4H-1,2,4-triazol-3-yl)phenyl)benzenesulfonamide], < 1000 nM.
As for `CC(C)n1c(-c2cc(Cl)c(F)cc2NS(=O)(=O)c2ccc(C(C)(C)C)cc2)nnc1C1CCOC1` (stereo not shown) [Compound 82], the IC50 was < 1000 nM.
Under `Cc1nnc(-c2cc(Cl)c(F)cc2NS(=O)(=O)c2ccc(C(C)(C)C)cc2)n1C` [Compound 36, 4-tert-butyl-N-(4-chloro-2-(4,5-dimethyl-4H-1,2,4-triazol-3-yl)-5-fluorophenyl)benzenesulfonamide] stands < 1000 nM; under `Cn1c(-c2cocn2)nnc1-c1cc(Cl)c(F)cc1NS(=O)(=O)c1ccc(C(C)(C)C)cc1` [Compound 111], < 1000 nM; under `CCn1cnnc1-c1cc(F)c(F)cc1NS(=O)(=O)c1ccc(C(C)(C)C)cc1` [Compound 22, 4-tert-butyl-N-(2-(4-ethyl-4H-1,2,4-triazol-3-yl)-4,5-difluorophenyl)benzenesulfonamide], < 1000 nM.
With `Cc1nnc(-c2cc(Cl)ccc2NS(=O)(=O)c2ccc(C(C)(C)C)cc2)n1C1CCOC1` (stereo not shown) [Compound 101], the IC50 is < 1000 nM.
For `COCc1nnc(-c2cc(Cl)ccc2NS(=O)(=O)c2ccc(C(C)(C)C)cc2)n1C` [Compound 10, 4-tert-butyl-N-(4-chloro-2-(5-(methoxymethyl)-4-methyl-4H-1,2,4-triazol-3-yl)phenyl)benzenesulfonamide], the IC50 was < 1000 nM.
Consider `CNC(=O)c1nnc(-c2cc(Cl)c(F)cc2NS(=O)(=O)c2ccc(C(C)(C)C)cc2)n1C` [Compound 56, 5-(2-(4-tert-butylphenylsulfonamido)-5-chloro-4-fluorophenyl)-N,4-dimethyl-4H-1,2,4-triazole-3-carboxamide], for which the IC50 was < 1000 nM.
With `Cn1c(CO)nnc1-c1cc(Cl)c(F)cc1NS(=O)(=O)c1ccc(C(C)(C)C)cc1` [Compound 123, 4-tert-butyl-N-(4-chloro-5-fluoro-2-(5-(hydroxymethyl)-4-methyl-4H-1,2,4-triazol-3-yl)phenyl)benzenesulfonamide], the IC50 was < 1000 nM.
Under `CC(C)(C)c1ccc(S(=O)(=O)Nc2cc(F)c(Cl)cc2-c2nncn2[C@H]2CCOC2)cc1` [Compound 54] stands < 1000 nM.
As for `CC(C)(C)c1ccc(S(=O)(=O)Nc2cc(F)c(Cl)cc2-c2nncn2[C@H]2CCNC2)cc1` [Compound 109], the IC50 was < 1000 nM.
In the case of `CC(C)c1nnc(-c2cc(Cl)ccc2NS(=O)(=O)c2ccc(C(C)(C)C)cc2)n1C` [Compound 8, 4-tert-butyl-N-(4-chloro-2-(5-isopropyl-4-methyl-4H-1,2,4-triazol-3-yl)phenyl)benzenesulfonamide], the IC50 was < 1000 nM.
Under `CC(=O)c1nnc(-c2cc(Cl)c(F)cc2NS(=O)(=O)c2ccc(C(C)(C)C)cc2)n1C` [Compound 58, N-(2-(5-acetyl-4-methyl-4H-1,2,4-triazol-3-yl)-4-chloro-5-fluorophenyl)-4-tert-butylbenzenesulfonamide] stands < 1000 nM; under `CC(C)n1c(-c2cc(Cl)ccc2NS(=O)(=O)c2ccc(C(C)(C)C)cc2)nnc1C(F)(F)F` [Compound 86, 4-tert-butyl-N-(4-chloro-2-(4-isopropyl-5-(trifluoromethyl)-4H-1,2,4-triazol-3-yl)phenyl)benzenesulfonamide], < 1000 nM; under `Cn1c(CS(C)(=O)=O)nnc1-c1cc(Cl)c(F)cc1NS(=O)(=O)c1ccc(C(C)(C)C)cc1` [Compound 67, 4-tert-butyl-N-(4-chloro-5-fluoro-2-(4-methyl-5-(methylsulfonylmethyl)-4H-1,2,4-triazol-3-yl)phenyl)benzenesulfonamide], < 1000 nM.
Then `CCn1c(C)nnc1-c1cc(Cl)ccc1NS(=O)(=O)c1ccc(C(C)(C)C)cc1` [Compound 5, 4-tert-butyl-N-(4-chloro-2-(4-ethyl-5-methyl-4H-1,2,4-triazol-3-yl)phenyl)benzenesulfonamide], with < 1000 nM.
For `CC(C)c1nnc(-c2cc(Cl)c(F)cc2NS(=O)(=O)c2ccc(C(C)(C)C)cc2)n1C1CCOC1` (stereo not shown) [Compound 81], the IC50 was < 1000 nM.
As to `CCc1nnc(-c2cc(Cl)c(F)cc2NS(=O)(=O)c2ccc(C(C)(C)C)cc2)n1[C@H]1CCNC1` [Compound 88], the IC50 was < 1000 nM.

The values are drawn from patent US8153818B2, “Triazolyl phenyl benzenesulfonamides” (ChemoCentryx, Inc., priority 2006, dated 2012).
